Measured values from US20030119903A1, “Use of trimebutine for treating pain” (priority 1999, published 2003).
Read-outs that look alike come from different tables or passages of the source.

Columns and labels:
[1] = tested on: veratridine-induced glutamate release; experiment: veratridine-induced [3H]-glutamate release from rat spinal cord slices; settings: for IC50: read-out: IC50, inhibition of veratridine-induced glutamate release
[2] = tested on: streptozocin-induced hyperalgesia; experiment: streptozocin-induced diabetic rats, tail immersion test; format: in vivo, rat; settings: 30 mg/kg s.c. single dose, 30 min or 60 min before test, 44° C.
Description: FIG. 9: Effect of TMB in diabetic rats.
Streptozocin is a selective pancreatic β-cell toxin, which has been used to induce experimental diabetes in laboratory animals (Tomlinson K. C. et al., 1992,). The resultant loss of endogenous insulin induced by streptozocin mimics the characteristics of type I, or insulin-dependent, diabetes. Streptozocin-induced diabetes has recently been described as a model of chronic pain in rats. It has been reported that streptozocin administration leads to mechanical, thermal, and chemical hyperalgesia as well as mechanical hypersensitivity (Courteix C. et al., 1993; Calcutt N. A. et al., 1996). The most common symptoms of diabetic neuropathy appear to be spontaneous burning pain and mechanical hypersensitivity in the feet or lower limbs.
Test is carried out with male Sprague Dawley rats (Iffa-Credo) weighing 160-180 grams on arrival. […] Food and water are provided ad libidum.
Animals are intraperitoneally injected with streptozocin 75 mg/kg. Control animals are given vehicle in the same conditions. Diabetes are confirmed once a week after injection by measurement of tail vein blood glucose levels with Boehriger glycemia test. […]
The tail of the rat is immersed in a water bath at 44° C. […] Results are expressed as the mean+/−SEM and analysed by a Student's t test after an analysis of variance (Anova one way).

[3] = tested on: PGE2-induced hyperalgesia; experiment: PGE2-induced hyperalgesia (Randall and Selitto's test)
Description: Test is carried out with Sprague-Dawley male rats (100-120 grams) on arrival. They are housed 5 per cage and acclimated to the conditions of the animal room for 5 days under a 12/12 day/night cycle and a constant room temperature of 22° C. Food and water are provided ad libidum.
A solution of PGE2 (1 mg/ml) is prepared as a stock solution in a 10% (v/v) alcohol in apyrogen sterile saline and stored at 4° C. for 4 days.
A solution of PGE2 (1 μg/ml) is freshly prepared twice daily in sterile saline and 100 μl is injected subplantar into the left paw of rat, twice daily for 4 days. Using this protocol, hyperalgesia is present for at least a week following completion for 4 days of treatment.
Hyperalgesia is measured by the Randall and Selitto's test (Randall and Setillo,1957) using an analgesimeter (Ugo Basile). The analgesimeter is basically a device which exerts a force that increases at constant rate. The force is applied to the animal's paw which is placed on a small plinth under a cone-shaped pusher. The operator depresses a pedal-switch to start the mechanism with exerts the force. The nociceptive threshold is defined as the force at which the rat withdraws its paw. The threshold is determined before and after treatment.
% of antinociceptive activity is calculated as follows: [formula]

[4] = tested on: unilateral peripheral mononeuropathy; experiment: rat mononeuropathy, vocalization threshold to paw pressure; settings: for duration of the antinociceptive effect: (S)-Nor-TMB s.c., morphine i.v.
formalin induced pain = experiment: formalin-induced pain; settings: for ED50: Rattus norvegicus, sc, read-out: ED50, formalin induced pain (licking time)
[5] = tested on: sodium currents in DRG neurons; experiment: whole cell patch clamp, sodium currents in DRG neurons; format: cell-based, rat
[6] = tested on: voltage-dependent Kv1.1 and Kv1.2 channels; experiment: two-electrode voltage clamp, potassium currents in Xenopus oocytes; settings: 10 μM, Kv1.1 and Kv1.2 in Xenopus oocytes
Description: (B) Potassium currents expressed in Xenopus oocytes. Superimposed current traces induced by 400 ms depolarizations at −40 to +20 mV (in 10 mV step from −80 mV).
Two voltage-dependent K^+ channels are considered: the shaker-related Kv1.1 and Kv1.2 channels.
The rat voltage-dependent rKv1.1 and rKv1.2 channels are expressed in Xenopus oocytes. […] The transcriptions are done using the Ambion Megascript (Ambion, USA) and the cRNAs are stored in water at 1 mg/ml. cRNAs injection in Xenopus oocytes is done at 2-4 ng/ml. Defolliculated oocytes are kept in ND96 medium supplemented with 0.1 U/ml gentamicin. The currents are recorded 1-6 days after injection.
A two-electrode voltage clamp amplifier (Geneclamp 500, Axon Instruments) is used to record K^+ currents from Xenopus oocytes. The KCl (3M)-filled electrodes had tip resistance<1 MΩ. The oocytes are continuously superfused with a Ca^2+-free ND96 medium in order to abolish the large Ca^2+-activated Cl^− current present in these cells.

[7] = tested on: sodium currents in GH3 cells; experiment: sodium currents in GH3 cells; format: cell-based, rat; settings: read-out: IC50, sodium current block (summary statement)
[8] = tested on: μ-, δ- and κ- opioid receptors; settings: rat brain, guinea-pig and canine intestinal receptors; no subtype selectivity; cited from earlier work
[9] = volunteers, tablets of 900 mg trimebutine, oral

Structure (SMILES): CC[C@](COC(=O)c1cc(OC)c(OC)c(OC)c1)(NC)c1ccccc1 [(S)-Nor-TMB, (S)-N-desmethyl trimebutine]
- IC50 ([1]; Rattus norvegicus): 6.3 µM
- reaction time of tail withdrawal from hot water [2]: the same as in control (non diabetic) rats
- inhibition of PGE2-induced hyperalgesia ([3]; 20 mg/kg s.c.): up to 89%
- ED50 ([3]; Rattus norvegicus, sc, read-out: ED50, PGE2-induced hyperalgesia): 7 mg/kg
- antinociceptive effect compared with morphine 1 mg/kg i.v. ([4]; 3 and 10 mg/kg s.c., amplitude and duration): superior to that of morphine
- duration of the antinociceptive effect [4]: more than 90 min
- dose from which the increase of vocalization pressure threshold is present ([4]; s.c.): ≥ 1 mg/kg
- antinociceptive effect, contralateral paw ([4]; vocalization threshold, s.c.): only at the highest dose (10 mg/kg)
- antinociceptive effect, nerve-injured paw ([4]; vocalization threshold, s.c.): significant at all the three doses tested

Structure (SMILES): CCC(COC(=O)c1cc(OC)c(OC)c(OC)c1)(NC)c1ccccc1 (stereo not shown) [Nor-TMB, N-desmethyl trimebutine]
- IC50 ([1]; veratridine 40 μM, rat spinal cord slices): 8.4 µM
- ED50, formalin induced pain (licking time) (formalin induced pain; s.c., 30 min before testing): 17 mg/kg
- inhibition parameters (IC50, nH) compared with trimebutine ([5]; DRG neurons): very similar

Structure (SMILES): CCC(COC(=O)c1cc(OC)c(OC)c(OC)c1)(c1ccccc1)N(C)C.O=C(O)/C=C\C(=O)O (racemic) [trimebutine, 2-dimethylamino-2-phenylbutyl 3,4,5-trimethoxybenzoate hydrogen maleate]
- K+ current block [6]: 23±6%
- concentration at which inhibition of glutamate release is seen / significant [1]: higher than 60 μM
- IC50 ([1]; Rattus norvegicus): > 100 µM
- IC50 [7]: < 1 µM
- activity at opioid receptors [8]: weak agonist activity
- ED50 (formalin induced pain): 231 mg/kg
- blocking rate kon [5]: 35-40 10^−3s^−1 μM^−1
- unblocking rate koff [5]: 29 10^−3s^−1
- time constant of channel block ([5]; 10 μM): 2.2 s
- τoff, time constant of recovery from block ([5]; n=6): 34 ± 4 s
- IC50 ([5]; read-out: IC50, best fit to Hill function (FIG. 4D legend)): 0.69 µM
- IC50 ([5]; read-out: IC50, sodium current block (dose-response curve, text)): 1.05 ± 0.09 µM
- IC50 ([5]; read-out: IC50, sodium current block (summary statement)): < 1 µM
- time of maximal plasma concentration [9]: 1 h

Structure (SMILES): CN1CC[C@]23c4c5ccc(O)c4O[C@H]2[C@@H](O)C=C[C@H]3[C@H]1C5 [morphine]
- effect on veratridine-induced glutamate release ([1]; up to 100 μM): inactive
- duration of the antinociceptive effect [4]: less than 60 min
- ED50 (formalin induced pain): 0.51 mg/kg

Structure (SMILES): CC[C@](COC(=O)c1cc(OC)c(OC)c(OC)c1)(c1ccccc1)N(C)C [(R)-Trimebutine]
- IC50 ([1]; Rattus norvegicus): > 100 µM
- inhibition of PGE2-induced hyperalgesia ([3]; 100 mg/kg s.c.): 57%

Structure (SMILES): CC[C@@](COC(=O)c1cc(OC)c(OC)c(OC)c1)(NC)c1ccccc1 [(R)-Nor-TMB, (R) N-desmethyl trimebutine]
- IC50 ([1]; Rattus norvegicus): 16.3 µM

Structure (SMILES): CCCCN1CCCCC1C(=O)Nc1c(C)cccc1C (stereo not shown) [bupivacaine]
- IC50 ([1]; Rattus norvegicus): 8.2 µM

Structure (SMILES): CC[C@@](COC(=O)c1cc(OC)c(OC)c(OC)c1)(c1ccccc1)N(C)C [(S)-Trimebutine]
- IC50 ([1]; Rattus norvegicus): 15.2 µM
